In the METLIN SMRT retention time set (Domingo-Almenara et al. 2019):

Assay: gradient 5% acetonitrile 3 min, to 50% in 2 min, to 85% in 15 min, held 3 min, 100 µL/min
Conditions: column: Zorbax Extend-C18 2.1 x 50 mm; eluents: water / acetonitrile, 0.1% formic acid
In short: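 Standards, all pure, were combined into mixtures of ~100 molecules and run at 100 μL/min on a Zorbax Extend-C18 column (2.1 × 50 mm, 1.8 μm) with water and acetonitrile, each containing 0.1% formic acid. A coupled quadrupole time-of-flight mass spectrometer operated in positive and negative ionization mode. Retention time values come from computationally picked adduct peaks, each inspected manually.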

Q: For `Cn1ncc2c3ccccc3n(CCCC(=O)NCc3ccc4c(c3)OCO4)c2c1=O`, which RP-LC retention time is on record?
A: 751 s

Q: Which RP-LC retention time does the source give for `CCn1cc(C)c(C(=O)O)c1CC(=O)N(C)c1ccccc1F` here?
A: 770 s

Q: With `O=C(NC1CCCC1)C1CCN(C(=O)c2ccc(-c3noc(C4CC4)n3)cc2)CC1` as the compound, how does the RP-LC retention time read?
A: 813 s

Q: Which RP-LC retention time does the source give for `Cc1ccccc1NC(=O)Cn1c(C)nc2c(sc3nc(-c4ccccc4)ccc32)c1=O` here?
A: 1060 s

Q: With `COc1ccc(NC(=O)C2CCN(S(=O)(=O)c3ccc4[nH]c(=O)sc4c3)CC2)c(OC)c1` as the compound, how does the RP-LC retention time read?
A: 774 s

Q: For `CCOC(=O)c1ccc(NC(=O)N2CCCC2c2cc(C(C)C)no2)cc1` (stereo not given), which RP-LC retention time is on record?
A: 942 s

Q: Which RP-LC retention time does the source give for `Cc1ccc(NC(=O)COc2cc(C)nc(N3CCN(c4ccccc4)CC3)n2)c(C)c1` here?
A: 914 s

Q: For `CC(C)C(=O)Nc1ccc(C2(C(=O)NCCN3CCc4ccccc4C3)CCCCC2)cc1`, which RP-LC retention time is on record?
A: 732 s

Q: With `CC(C)NC(=O)N1CCCC(c2cccc(C(=O)NCc3ccccc3C(F)(F)F)c2)C1` (stereo not given) as the compound, how does the RP-LC retention time read?
A: 966 s

Q: Which RP-LC retention time does the source give for `CCc1ccc(NC(=O)Cn2c(=O)cc(-c3nc(C(C)C)no3)c3ccccc32)cc1` here?
A: 1100 s

Q: For `O=C(Cc1ccccc1Br)N1CCc2cc(-c3ccno3)ccc21`, which RP-LC retention time is on record?
A: 1030 s

Q: For `Cc1ccc(C)c2sc(OC3CCN(C(=O)c4ccc(=O)n(C)n4)CC3)nc12`, which RP-LC retention time is on record?
A: 911 s

Q: For `Cc1ccoc1C(=O)N1CC(F)(F)C[C@H]1c1nc(C2CC2)no1`, which RP-LC retention time is on record?
A: 723 s

Q: For `O=C(c1ccnc(N2CCNC(c3ccccc3)C2)c1)N1CCN(c2ncccn2)CC1` (stereo not given), which RP-LC retention time is on record?
A: 608 s

Q: With `COC(=O)c1ncn2c1C(=O)N(Cc1ccc(Cl)cc1)C(C)(C(=O)NC1CCCCC1)C2` (stereo not given) as the compound, how does the RP-LC retention time read?
A: 798 s

Q: Which RP-LC retention time does the source give for `CCC(C)NC(=O)Cn1c(=O)ccc2cc(S(=O)(=O)N3CCC(C)CC3)ccc21` (stereo not given) here?
A: 833 s

Q: For `CCCN(C)C(=O)c1cc2c(s1)N(CCC)CCCC2`, which RP-LC retention time is on record?
A: 1170 s

Q: With `COc1ccc(Br)c(C(=O)NCC#CCN(C(C)C)C(C)C)c1` as the compound, how does the RP-LC retention time read?
A: 567 s

Q: Which RP-LC retention time does the source give for `CCc1nn2c(CNC(=O)C3CCN(C(C)=O)CC3)c(-c3ccccc3)nc2s1` here?
A: 664 s

Q: For `COc1ccc2[nH]cc(CCNC(=O)c3cc(-c4ccccn4)nc4ccccc34)c2c1`, which RP-LC retention time is on record?
A: 814 s

Q: With `Cc1ccccc1Cn1cc(C(=O)O)c(S(=O)(=O)N2CCSCC2)n1` as the compound, how does the RP-LC retention time read?
A: 848 s

Q: With `O=C(NC1CCCCC1)c1ccc(CN2CCN(Cc3ccc(F)cc3)C(=O)C2=O)cc1` as the compound, how does the RP-LC retention time read?
A: 783 s

Q: Which RP-LC retention time does the source give for `CN1CCN(C(=O)CSc2nccnc2Sc2ccccc2)CC1` here?
A: 637 s

Q: With `Cc1ccccc1Nc1c(-c2ccccc2O)nc2ccccn12` as the compound, how does the RP-LC retention time read?
A: 701 s

Q: For `COc1ccc(-c2nc(COc3cc(C)c4c(C)nn(C)c4n3)c(C)o2)cc1`, which RP-LC retention time is on record?
A: 1120 s

Q: For `CC(=O)c1ccc(NC(=O)c2[nH]c3cc(C)sc3c2CN(C)C)cc1`, which RP-LC retention time is on record?
A: 638 s

Q: For `CCCn1cc(CCNS(=O)(=O)c2cccc(OC)c2)c2cccnc21`, which RP-LC retention time is on record?
A: 837 s

Q: Which RP-LC retention time does the source give for `Cc1ncc(C(=O)NC2CC2)c(=O)n1CC(=O)Nc1cc(F)ccc1F` here?
A: 705 s

Q: For `CCC(C)C(NC(=O)c1cc(OC)c(OC)c(OC)c1)C(=O)Nc1nc2ccccc2[nH]1` (stereo not given), which RP-LC retention time is on record?
A: 725 s

Q: Which RP-LC retention time does the source give for `Cc1occc1C(=O)N1CC(c2nc(CCN(C)C(=O)C3CC3)no2)C1` here?
A: 661 s

Q: With `O=C(NC1CC1)c1ccc2c(c1)CCN2C(=O)C1CC1` as the compound, how does the RP-LC retention time read?
A: 673 s

Q: Which RP-LC retention time does the source give for `Cc1cc(C)cc(C(=O)N2CCN(c3nc(CN4CCOCC4)cs3)CC2)c1` here?
A: 647 s

Q: For `CC(C)(C)C(=O)Nc1ccc(N2CCC(N3CCCCC3)CC2)cc1C(=O)O`, which RP-LC retention time is on record?
A: 615 s

Q: For `CCc1nn(CC)c(=O)c2cc(S(=O)(=O)NC(C)c3ccccc3)cn12` (stereo not given), which RP-LC retention time is on record?
A: 964 s

Q: With `Cc1ccc(S(=O)(=O)N2CCCCC2c2nncn2C)cc1F` (stereo not given) as the compound, how does the RP-LC retention time read?
A: 736 s

Q: Which RP-LC retention time does the source give for `CCCCOc1ccc(-c2nc(C3CC(=O)N(c4ccc(OC)c(OC)c4)C3)no2)cc1` (stereo not given) here?
A: 1120 s

Q: With `Cc1nc2c(SCC(=O)Nc3ccc4c(c3)OCO4)nnc(-c3ccccc3)c2s1` as the compound, how does the RP-LC retention time read?
A: 847 s

Q: With `O=S(=O)(c1ccccc1F)N1CCC(c2noc(-c3cccc(F)c3)n2)CC1` as the compound, how does the RP-LC retention time read?
A: 1110 s

Q: For `Cc1ccc(Nc2nc(NCCO)c3cnn(C)c3n2)cc1C`, which RP-LC retention time is on record?
A: 610 s

Q: For `Cc1[nH]ncc1CNC(=O)c1ccc2nc(Cc3ccccc3F)oc2c1`, which RP-LC retention time is on record?
A: 689 s

Q: With `COc1ccc(-c2noc(C3CCCN(S(=O)(=O)c4ccc(C)cc4)C3)n2)cc1OC` (stereo not given) as the compound, how does the RP-LC retention time read?
A: 993 s

Q: Which RP-LC retention time does the source give for `Cn1cc(-c2cc3n(n2)CCC(=O)N3CC(=O)NCCCN2CCCCCC2)c2ccccc21` here?
A: 621 s

Q: Which RP-LC retention time does the source give for `COc1ccc(-c2noc(CN3N=NC4C(=O)N(c5ccc(F)c(F)c5)C(=O)C43)n2)cc1` (stereo not given) here?
A: 1130 s

Q: For `O=C(NCC(O)(c1ccccc1)C(F)(F)F)c1ccc2nsnc2c1` (stereo not given), which RP-LC retention time is on record?
A: 853 s

Q: With `O=C(Nc1ccccc1C(=O)NCCCN1CCN(C2CCCCC2)CC1)C1=CSCCO1` as the compound, how does the RP-LC retention time read?
A: 608 s

Q: For `O=C(Cc1nnc(-c2ccc3ncccc3c2)o1)Nc1cccc(C(F)(F)F)c1`, which RP-LC retention time is on record?
A: 802 s

Q: For `CC(C)CC(=O)Nc1ccc(OCc2cc(C(=O)NC(C)C)no2)cc1`, which RP-LC retention time is on record?
A: 816 s

Q: With `CC1(C)CC(=O)C2=C(C1)N(CC1CCCO1)C(=O)C2(NC(=O)c1ccccc1)C(F)(F)F` (stereo not given) as the compound, how does the RP-LC retention time read?
A: 906 s

Q: Which RP-LC retention time does the source give for `Cc1ccc(NC(=O)N2CCC(C(C)C(=O)Nc3ccc(C)c(C)c3)CC2)cc1` (stereo not given) here?
A: 932 s

Q: For `COc1cccc(N2CCN(c3ccc(-c4nc(-c5ccccc5)no4)cn3)CC2)c1`, which RP-LC retention time is on record?
A: 1410 s

Q: For `O=C(Cn1c(=O)cc(-c2nc(C3CC3)no2)c2ccccc21)NC1CCCCC1`, which RP-LC retention time is on record?
A: 932 s

Q: With `CCc1cccc(N2C(=O)c3c(C(=O)OC)ncn3CC2(C)C(=O)NC2CCCC2)c1` (stereo not given) as the compound, how does the RP-LC retention time read?
A: 615 s

Q: For `COc1ccccc1N1CCN(c2cc(SCC(=O)NCc3ccc4c(c3)OCO4)ncn2)CC1`, which RP-LC retention time is on record?
A: 840 s

Q: For `C=CC(=O)N1C/C(=C\c2ccccc2)C(=O)/C(=C/c2ccccc2)C1`, which RP-LC retention time is on record?
A: 930 s

Q: With `O=c1ccc2cc(S(=O)(=O)N3CCN(c4ccccn4)CC3)ccc2[nH]1` as the compound, how does the RP-LC retention time read?
A: 581 s

Q: For `CC(C)Cn1c(=O)c2cc(C(=O)NCc3ccncc3)nn2c2ccccc21`, which RP-LC retention time is on record?
A: 657 s

Q: With `Cc1cc2c(c(=O)n(-c3ccc(F)cc3)c(=O)n2CC(=O)Nc2ccc3c(c2)OCO3)n1C` as the compound, how does the RP-LC retention time read?
A: 807 s

Q: For `COC(=O)C1=CN(c2ccc(F)cc2C)c2ccc(F)cc2S1(=O)=O`, which RP-LC retention time is on record?
A: 920 s

Q: Which RP-LC retention time does the source give for `CCNC(=O)c1n[nH]c2c1CC(C)CC2` (stereo not given) here?
A: 685 s

Q: Which RP-LC retention time does the source give for `Cc1nn(CC(=O)N2CCC(N3CCCCC3)CC2)c(=O)c2nn(-c3ccccc3)c(C)c12` here?
A: 605 s

Q: With `CCC(C)NC(=O)c1ccc2c(c1)CCCN2S(=O)(=O)CC` (stereo not given) as the compound, how does the RP-LC retention time read?
A: 781 s

Q: With `O=C(NCCc1ccccc1)C1CCCN(C(=O)Cc2cccc3ccccc23)C1` (stereo not given) as the compound, how does the RP-LC retention time read?
A: 906 s

Q: For `COc1cc(CNCCc2c[nH]c3ccccc23)ccc1OCc1ccc2c(c1)n(C)c(=O)n2C`, which RP-LC retention time is on record?
A: 670 s

Q: Which RP-LC retention time does the source give for `CC(C)C(=O)Nc1ccc(N2CCN(CC(=O)N3CCCC3)CC2)cc1C(=O)O` here?
A: 587 s

Q: For `COc1ccc(OC)c(NC(=O)N2CCc3cn(C)c4cccc(c34)C2)c1`, which RP-LC retention time is on record?
A: 943 s
